Measurements from US11053204B2, “Pyrimidinyloxy benzene derivatives as herbicides” (FMC Corporation, priority 2015, dated 2021).

What was measured:
Type in all cases: in vivo
[1] = tested on: Italian ryegrass (Lolium multiflorum); assay: Test A preemergence, visual injury rating; conditions: for Plant response rating, Ryegrass, Italian: 31 g ai/ha, 0 to 100 scale, 0 no effect, 100 complete control; for Ryegrass, Italian plant response rating: 0 to 100 scale (0 no effect, 100 complete control)
Outline: (§1)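 Pre- and postemergence greenhouse screen. Soil: loam + sand. Spray carrier: solvent mixture, non-phytotoxic, with surfactant. Post timing at 1–2 leaves, height 2–10 cm. Readout: visual injury on a 0–100 scale roughly 10 days after application, untreated plants as reference.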

[2] = tested on: pigweed (Amaranthus retroflexus); assay: Test A preemergence, visual injury rating; conditions: for Plant response rating, Pigweed: 31 g ai/ha, 0 to 100 scale, 0 no effect, 100 complete control; for Pigweed plant response rating: 0 to 100 scale (0 no effect, 100 complete control)
Outline: as §1

[3] = tested on: ragweed (common ragweed, Ambrosia elatior); assay: Test A preemergence, visual injury rating; conditions: for Plant response rating, Ragweed: 31 g ai/ha, 0 to 100 scale, 0 no effect, 100 complete control; for Ragweed plant response rating: 0 to 100 scale (0 no effect, 100 complete control)
Outline: as §1

[4] = tested on: barnyardgrass (Echinochloa crus-galli); assay: Test A preemergence, visual injury rating; conditions: for Plant response rating, Barnyardgrass: 31 g ai/ha, 0 to 100 scale, 0 no effect, 100 complete control; for Barnyardgrass plant response rating: 0 to 100 scale (0 no effect, 100 complete control)
Outline: as §1

kochia (Kochia scoparia) [5] = assay: Test A preemergence, visual injury rating; conditions: for Plant response rating, Kochia: 31 g ai/ha, 0 to 100 scale, 0 no effect, 100 complete control; for Kochia plant response rating: 0 to 100 scale (0 no effect, 100 complete control)
Outline: as §1

[6] = tested on: giant foxtail (Setaria faberii); assay: Test A preemergence, visual injury rating; conditions: for Plant response rating, Foxtail, Giant: 31 g ai/ha, 0 to 100 scale, 0 no effect, 100 complete control; for Foxtail, Giant plant response rating: 0 to 100 scale (0 no effect, 100 complete control)
Outline: as §1

[7] = tested on: Italian ryegrass (Lolium multiflorum); assay: Test A postemergence, visual injury rating; conditions: 0 is no effect, 100 is complete control; for Ryegrass, Italian plant response rating: 31 g ai/ha, 0 to 100 scale, approximately 10 days
Source text: (§2) Seeds of plant species selected from barnyardgrass (Echinochloa crus-galli), kochia (Kochia scoparia), ragweed (common ragweed, Ambrosia elatior), Italian ryegrass (Lolium multiflorum), large (Lg) crabgrass (Digitaria sanguinalis), giant foxtail (Setaria faberii), morningglory (Ipomoea spp.), pigweed (Amaranthus retroflexus), velvetleaf (Abutilon theophrasti), wheat (Triticum aestivum), and corn (Zea mays) were planted into a blend of loam soil and sand and treated preemergence with a directed soil spray using test chemicals formulated in a non-phytotoxic solvent mixture which included a surfactant.
(§3) At the same time, plants selected from these crop and weed species and also blackgrass (Alopecurus myosuroides), and galium (catchweed bedstraw, Galium aparine) were planted in pots containing the same blend of loam soil and sand and treated with postemergence applications of test chemicals formulated in the same manner. Plants ranged in height from 2 to 10 cm and were in the one- to two-leaf stage for the postemergence treatment. Treated plants and untreated controls were maintained in a greenhouse for approximately 10 days, after which time all treated plants were compared to untreated controls and visually evaluated for injury. Plant response ratings, summarized in Table A, are based on a 0 to 100 scale where 0 is no effect and 100 is complete control. A dash (-) response means no test result.

[8] = tested on: galium (catchweed bedstraw, Galium aparine); assay: Test A postemergence, visual injury rating; conditions: 0 is no effect, 100 is complete control; for Galium plant response rating: 31 g ai/ha, 0 to 100 scale, approximately 10 days
Source text: as §2, §3

[9] = tested on: wheat (Triticum aestivum); assay: Test A postemergence, visual injury rating; conditions: 0 is no effect, 100 is complete control; for Wheat plant response rating: 31 g ai/ha, 0 to 100 scale, approximately 10 days
Source text: as §2, §3

[10] = tested on: pigweed (Amaranthus retroflexus); assay: Test A postemergence, visual injury rating; conditions: 0 is no effect, 100 is complete control; for Pigweed plant response rating: 31 g ai/ha, 0 to 100 scale, approximately 10 days
Source text: as §2, §3

[11] = tested on: blackgrass (Alopecurus myosuroides); assay: Test A postemergence, visual injury rating; conditions: 0 is no effect, 100 is complete control; for Blackgrass plant response rating: 31 g ai/ha, 0 to 100 scale, approximately 10 days
Source text: as §2, §3

[12] = tested on: ragweed (common ragweed, Ambrosia elatior); assay: Test A postemergence, visual injury rating; conditions: 0 is no effect, 100 is complete control; for Ragweed plant response rating: 31 g ai/ha, 0 to 100 scale, approximately 10 days
Source text: as §2, §3

[13] = tested on: barnyardgrass (Echinochloa crus-galli); assay: Test A postemergence, visual injury rating; conditions: 0 is no effect, 100 is complete control; for Barnyardgrass plant response rating: 31 g ai/ha, 0 to 100 scale, approximately 10 days
Source text: as §2, §3

corn (Zea mays) = assay: Test A postemergence, visual injury rating; conditions: 0 is no effect, 100 is complete control; for Corn plant response rating: 31 g ai/ha, 0 to 100 scale, approximately 10 days
Source text: as §2, §3

kochia (Kochia scoparia) [14] = assay: Test A postemergence, visual injury rating; conditions: 0 is no effect, 100 is complete control; for Kochia plant response rating: 31 g ai/ha, 0 to 100 scale, approximately 10 days
Source text: as §2, §3

[15] = tested on: giant foxtail (Setaria faberii); assay: Test A postemergence, visual injury rating; conditions: 0 is no effect, 100 is complete control; for Foxtail, Giant plant response rating: 31 g ai/ha, 0 to 100 scale, approximately 10 days
Source text: as §2, §3

rice (Oryza sativa) = assay: Test B flooded paddy test, plant response rating; conditions: 250 g ai/ha; Flood; scale of 0 to 100 where 0 is no effect and 100 is complete control; 13 to 15 days
Outline: (§4)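 Compound was added to standing water 3 cm above soil, flood maintained, and plants held in a greenhouse before visual scoring against controls at 13 to 15 days.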

[16] = tested on: ducksalad (Heteranthera limosa); assay: Test B flooded paddy test, plant response rating; conditions: 250 g ai/ha; Flood; scale of 0 to 100 where 0 is no effect and 100 is complete control; 13 to 15 days
Outline: as §4

[17] = tested on: barnyardgrass (Echinochloa crus-galli); assay: Test B flooded paddy test, plant response rating; conditions: 250 g ai/ha; Flood; scale of 0 to 100 where 0 is no effect and 100 is complete control; 13 to 15 days
Outline: as §4

[18] = tested on: sedge, umbrella (small-flower umbrella sedge, Cyperus difformis); assay: Test B flooded paddy test, plant response rating; conditions: 250 g ai/ha; Flood; scale of 0 to 100 where 0 is no effect and 100 is complete control; 13 to 15 days
Outline: as §4

SMILES | Ryegrass, Italian plant response rating ([1]; 125 g ai/ha) | Pigweed plant response rating ([2]; 125 g ai/ha) | Ragweed plant response rating ([3]; 125 g ai/ha) | Barnyardgrass plant response rating ([4]; 125 g ai/ha) | Kochia plant response rating (kochia (Kochia scoparia) [5]; 125 g ai/ha) | Foxtail, Giant plant response rating ([6]; 125 g ai/ha) | Ryegrass, Italian plant response rating (0 to 100 scale) ([7]; 125 g ai/ha) | Galium plant response rating (0 to 100 scale) ([8]; 125 g ai/ha) | Wheat plant response rating (0 to 100 scale) ([9]; 125 g ai/ha) | Pigweed plant response rating (0 to 100 scale) ([10]; 125 g ai/ha) | Blackgrass plant response rating (0 to 100 scale) ([11]; 125 g ai/ha) | Ragweed plant response rating (0 to 100 scale) ([12]; 125 g ai/ha) | Barnyardgrass plant response rating (0 to 100 scale) ([13]; 125 g ai/ha) | Corn plant response rating (0 to 100 scale) (corn (Zea mays); 125 g ai/ha) | Kochia plant response rating (0 to 100 scale) (kochia (Kochia scoparia) [14]; 125 g ai/ha) | Foxtail, Giant plant response rating (0 to 100 scale) ([15]; 125 g ai/ha) | Plant response rating, Rice (rice (Oryza sativa)) | Plant response rating, Ducksalad [16] | Plant response rating, Barnyardgrass [17] | Plant response rating, Sedge, Umbrella [18] | also measured
CN(CCC(F)(F)F)C(=O)c1c(Br)cccc1Oc1ncc(Cl)cn1 [Compound 19] | 0 | 20 | 0 | 0 | 20 | 0 | 0 | 0 | 0 | 10 | 0 | 0 | 0 | 0 | 0 | 0 | 0 | 0 | 0 | 0 | Plant response rating, Ryegrass, Italian [1]: 0; Plant response rating, Pigweed [2]: 0; Plant response rating, Ragweed [3]: 0; Plant response rating, Barnyardgrass [4]: 0; Plant response rating, Kochia (kochia (Kochia scoparia) [5]): 0; Plant response rating, Foxtail, Giant [6]: 0; Ryegrass, Italian plant response rating [7]: 0; Galium plant response rating [8]: 0; Wheat plant response rating [9]: 0; Pigweed plant response rating [10]: 10; Blackgrass plant response rating [11]: 0; Ragweed plant response rating [12]: 0; Barnyardgrass plant response rating [13]: 0; Corn plant response rating (corn (Zea mays)): 0; Kochia plant response rating (kochia (Kochia scoparia) [14]): 0; Foxtail, Giant plant response rating [15]: 0
CN(OCC(F)(F)F)C(=O)c1c(Br)cccc1Oc1ncc(Br)cn1 [Compound 24] | 0 | 0 | 0 | 0 | 0 | 0 | 0 | 10 | 0 | 0 | 0 | 0 | 0 | 0 | 0 | 0 | 0 | 0 | 0 | 0 | Ryegrass, Italian plant response rating ([1]; 500 g ai/ha): 0; Pigweed plant response rating ([2]; 500 g ai/ha): 90; Ragweed plant response rating ([3]; 500 g ai/ha): 0; Barnyardgrass plant response rating ([4]; 500 g ai/ha): 30; Kochia plant response rating (kochia (Kochia scoparia) [5]; 500 g ai/ha): 0; Foxtail, Giant plant response rating ([6]; 500 g ai/ha): 20; Ryegrass, Italian plant response rating (0 to 100 scale) ([7]; 500 g ai/ha): 0; Galium plant response rating (0 to 100 scale) ([8]; 500 g ai/ha): 20; Wheat plant response rating (0 to 100 scale) ([9]; 500 g ai/ha): 0; Pigweed plant response rating (0 to 100 scale) ([10]; 500 g ai/ha): 10; Blackgrass plant response rating (0 to 100 scale) ([11]; 500 g ai/ha): 0; Ragweed plant response rating (0 to 100 scale) ([12]; 500 g ai/ha): 0; Barnyardgrass plant response rating (0 to 100 scale) ([13]; 500 g ai/ha): 10; Corn plant response rating (0 to 100 scale) (corn (Zea mays); 500 g ai/ha): 0; Kochia plant response rating (0 to 100 scale) (kochia (Kochia scoparia) [14]; 500 g ai/ha): 0; Foxtail, Giant plant response rating (0 to 100 scale) ([15]; 500 g ai/ha): 0
CN(OCC(F)(F)F)C(=O)c1c(Br)cccc1Oc1ncc(Cl)cn1 [Compound 25] | 0 | 40 | 0 | 0 | 0 | 10 | 0 | 20 | 0 | 30 | 0 | 10 | 0 | 0 | 10 | 0 | 0 | 0 | 0 | 0 | Ryegrass, Italian plant response rating ([1]; 500 g ai/ha): 0; Pigweed plant response rating ([2]; 500 g ai/ha): 80; Ragweed plant response rating ([3]; 500 g ai/ha): 0; Barnyardgrass plant response rating ([4]; 500 g ai/ha): 30; Kochia plant response rating (kochia (Kochia scoparia) [5]; 500 g ai/ha): 50; Foxtail, Giant plant response rating ([6]; 500 g ai/ha): 60; Ryegrass, Italian plant response rating (0 to 100 scale) ([7]; 500 g ai/ha): 0; Galium plant response rating (0 to 100 scale) ([8]; 500 g ai/ha): 50; Wheat plant response rating (0 to 100 scale) ([9]; 500 g ai/ha): 10; Pigweed plant response rating (0 to 100 scale) ([10]; 500 g ai/ha): 60; Blackgrass plant response rating (0 to 100 scale) ([11]; 500 g ai/ha): 30; Ragweed plant response rating (0 to 100 scale) ([12]; 500 g ai/ha): 20; Barnyardgrass plant response rating (0 to 100 scale) ([13]; 500 g ai/ha): 10; Corn plant response rating (0 to 100 scale) (corn (Zea mays); 500 g ai/ha): 20; Kochia plant response rating (0 to 100 scale) (kochia (Kochia scoparia) [14]; 500 g ai/ha): 50; Foxtail, Giant plant response rating (0 to 100 scale) ([15]; 500 g ai/ha): 10
O=C(OC(CCl)CCl)c1c(Br)cccc1Oc1ncc(Cl)cn1 [Compound 36] | 0 | 0 | 0 | 0 | 0 | 0 | 0 | 0 | 0 | 60 | 0 | 0 | 0 | 0 | 0 | 0 | 0 | 0 | 0 | 0 | Plant response rating, Ryegrass, Italian [1]: 0; Plant response rating, Pigweed [2]: 0; Plant response rating, Ragweed [3]: 0; Plant response rating, Barnyardgrass [4]: 0; Plant response rating, Kochia (kochia (Kochia scoparia) [5]): 0; Plant response rating, Foxtail, Giant [6]: 0; Ryegrass, Italian plant response rating [7]: 0; Galium plant response rating [8]: 0; Wheat plant response rating [9]: 0; Pigweed plant response rating [10]: 0; Blackgrass plant response rating [11]: 0; Ragweed plant response rating [12]: 0; Barnyardgrass plant response rating [13]: 0; Corn plant response rating (corn (Zea mays)): 0; Kochia plant response rating (kochia (Kochia scoparia) [14]): 0; Foxtail, Giant plant response rating [15]: 0
